Assay results taken from US7767665B2, “1,3-benzothiazinone derivatives and use thereof” (Takeda Pharmaceutical Company Limited, priority 2001, dated 2010).

Row | SMILES | melting point
1 | O=C(NCCc1cccc(-c2nc(=O)c3ccccc3s2)n1)Nc1ccccc1 [Example 227, N-[2-[6-(4-Oxo-4H-1,3-benzothiazin-2-yl)-2-pyridyl]ethyl]-N′-phenylurea] | 234.8 to 236.4 °C
2 | Cc1cccc2c(=O)nc(-c3cccc(CCC(=O)OC(C)(C)C)n3)sc12 [Example 338, tert-Butyl 3-[6-(8-methyl-4-oxo-4H-1,3-benzothiazin-2-yl)-2-pyridyl]propanoate] | 109.9 to 110 °C
3 | C[S+]([O-])c1cc(CCC(=O)OC(C)(C)C)cc(-c2nc(=O)c3ccccc3s2)n1 (centres unmarked) [Example 343, tert-Butyl 3-[2-(methylsulfinyl)-6-(4-oxo-4H-1,3-benzothiazin-2-yl)-4-pyridyl]propanoate] | 219.5 to 220 °C
4 | O=c1nc(-c2ccc(Sc3ccc(Cl)cc3)nc2)sc2ccccc12 [Example 36, 2-{6-[(4-Chlorophenyl)thio]-3-pyridyl}-4H-1,3-benzothiazine-4-one] | 221.5 to 222 °C
5 | Cc1cccc2c(=O)nc(-c3ccccn3)sc12 [Example 12, 8-Methyl-2-(2-pyridyl)-4H-1,3-benzothiazine-4-one] | 197.8 to 198.5 °C
6 | CCOP(=O)(CCc1ccnc(-c2nc(=O)c3ccccc3s2)c1)OCC | 102 to 103.2 °C
7 | Cc1ccnc(-c2nc(=O)c3ccccc3s2)c1 [Example 138, 2-(4-Methyl-2-pyridyl)-4H-1,3-benzothiazine-4-one] | 199.7 to 199.9 °C
8 | CNc1cccc(-c2nc(=O)c3ccccc3s2)n1 [Example 109, 2-(6-Methylamino-2-pyridyl)-4H-1,3-benzothiazine-4-one] | 206.9 to 208 °C
9 | C[S+]([O-])c1cccc(-c2nc(=O)c3ccccc3s2)n1 (centres unmarked) [Example 44, 2-(6-Methylsulfinyl-2-pyridyl)-4H-1,3-benzothiazine-4-one] | 256.5 °C (dec.)
10 | N#Cc1nc(-c2nc(=O)c3ccccc3s2)ccc1CCC(=O)O [Example 340, 3-[2-Cyano-6-(4-oxo-4H-1,3-benzothiazin-2-yl)-3-pyridyl]propanoate] | 283.8 °C (dec.)
11 | Nc1ccnc(-c2nc(=O)c3ccccc3s2)c1 [Example 142, 2-(4-Amino-2-pyridyl)-4H-1,3-benzothiazine-4-one] | 207.6 to 207.9 °C
12 | CCCCCS(=O)(=O)c1cccc(-c2nc(=O)c3ccccc3s2)n1 [Example 156, 2-[6-(n-Pentylsulfonyl)-2-pyridyl]-4H-1,3-benzothiazine-4-one] | 160 to 161 °C
13 | Cc1cc(CCC(=O)OC(C)(C)C)nc(-c2nc(=O)c3ccc(Cl)cc3s2)c1 [Example 190, tert-Butyl 3-[6-(7-chloro-4-oxo-4H-1,3-benzothiazin-2-yl)-4-methyl-2-pyridyl]propanoate] | 162.3 to 163 °C
14 | CSc1ccnc(-c2nc(=O)c3ccccc3s2)c1 [Example 298, 2-[4-(Methylthio)-2-pyridyl]-4H-1,3-benzothiazine-4-one] | 213 to 214 °C
15 | O=C(O)CNc1nccc(-c2nc(=O)c3ccccc3s2)n1 [Example 296, {[6-(4-Oxo-4H-1,3-benzothiazin-2-yl)-2-pyrimidinyl]amino}acetic acid] | 283 to 284 °C
16 | CC(C)(C)OC(=O)NCCc1cccc(-c2nc(=O)c3ccccc3s2)n1 [Example 217, tert-Butyl 2-[6-(4-oxo-4H-1,3-benzothiazin-2-yl)-2-pyridyl]ethylcarbamate] | 170.2 to 170.8 °C
17 | CCCCCCNc1cc(-c2nc(=O)c3ccccc3s2)ccn1 [Example 72, 2-[2-(Hexylamino)-4-pyridyl]-4H-1,3-benzothiazine-4-one] | 133.8 to 134.6 °C
18 | C[S+]([O-])Cc1cccc(-c2nc(=O)c3ccccc3s2)n1 (centres unmarked) [Example 168, 2-(6-Methylsulfinylmethyl-2-pyridyl)-4H-1,3-benzothiazine-4-one] | 184.5 to 185.5 °C
19 | O=C(O)/C=C/c1ccnc(-c2nc(=O)c3ccccc3s2)c1 [Example 310, (E)-3-[2-(4-Oxo-4H-1,3-benzothiazin-2-yl)-4-pyridyl]acrylic acid] | 284.3 to 285 °C
20 | O=c1nc(-c2cccc(CN3CCOCC3)n2)sc2ccccc12 [Example 170, 2-[6-(4-Morpholinomethyl)-2-pyridyl]-4H-1,3-benzothiazine-4-one] | 191.8 °C (dec.)
21 | N#Cc1ccnc(-c2nc(=O)c3ccccc3s2)c1 [Example 143, 2-(4-Cyano-2-pyridyl)-4H-1,3-benzothiazine-4-one] | 283.4 to 283.6 °C
22 | CC(=O)NCc1cccc(-c2nc(=O)c3ccccc3s2)n1 [Example 204, N-[[6-(4-Oxo-4H-1,3-benzothiazin-2-yl)-2-pyridyl]methyl]ace tamide] | 199.2 to 200.4 °C
23 | CSCc1cccc(-c2nc(=O)c3ccccc3s2)n1 [Example 167, 2-(6-Methylthiomethyl-2-pyridyl)-4H-1,3-benzothiazine-4-one] | 151.5 to 153 °C
24 | O=c1nc(-c2cccc(S(=O)(=O)Cc3ccccc3)n2)sc2ccccc12 [Example 161, 2-[6-(Benzylsulfonyl)-2-pyridyl]-4H-1,3-benzothiazine-4-one] | 217 to 218 °C

Row | SMILES | melting point
25 | CCC(=O)N(C)c1cccc(-c2nc(=O)c3ccccc3s2)n1 [Example 114, N-Methyl-N-[6-(4-oxo-4H-1,3-benzothiazin-2-yl)-2-pyridyl]propanamide] | 200.6 to 201.2 °C
26 | CC(C)(C)OC(=O)CCc1ccc(-c2nc(=O)c3ccccc3s2)nc1 [Example 327, tert-Butyl 3-[6-(4-oxo-4H-1,3-benzothiazin-2-yl)-3-pyridyl]propanoate] | 160 to 161 °C
27 | C[S+]([O-])c1cncc(-c2nc(=O)c3ccccc3s2)n1 (centres unmarked) [Example 288, 2-[6-(Methylsulfinyl)-2-pyrazinyl]-4H-1,3-benzothiazine-4-one] | 228.5 to 230.5 °C
28 | CCS(=O)(=O)NCc1cccc(-c2nc(=O)c3ccccc3s2)n1 [Example 212, N-[[6-(4-Oxo-4H-1,3-benzothiazin-2-yl)-2-pyridyl]methyl]ethanesulfonamide] | 170 to 171 °C
29 | CC(C)CCSc1cccc(-c2nc(=O)c3ccccc3s2)n1 [Example 130, 2-[6-(Isopentylthio)-2-pyridyl]-4H-1,3-benzothiazine-4-one] | 103.4 to 105.1 °C
30 | CSc1nccc(-c2nc(=O)c3ccccc3s2)n1 [Example 284, 2-[2-(Methylthio)-6-pyrimidinyl]-4H-1,3-benzothiazine-4-one] | 223.5 to 224 °C
31 | CCCCCSc1cccc(-c2nc(=O)c3ccccc3s2)n1 [Example 129, 2-[6-(Pentylthio)-2-pyridyl]-4H-1,3-benzothiazine-4-one] | 105 to 105.1 °C
32 | O=c1nc(-c2cccc(CN3CCC(Cc4ccccc4)CC3)n2)sc2ccccc12 [Example 268, 2-{6-[(4-Benzyl-1-piperidyl)methyl]-2-pyridyl}-4H-1,3-benzo thiazine-4-one] | 151 to 153 °C
33 | O=c1nc(-c2cccc(N3CCN(c4ccccc4)CC3)n2)sc2ccccc12 [Example 62, 2-[6-(4-Phenyl-1-piperazinyl)-2-pyridyl]-4H-1,3-benzothiazine-4-one] | 245.8 °C (dec.)
34 | CS(=O)(=O)c1nccc(-c2nc(=O)c3ccccc3s2)n1 [Example 286, 2-[2-(Methylsulfonyl)-6-pyrimidinyl]-4H-1,3-benzothiazine-4-one] | 269.5 to 270 °C
35 | O=c1nc(-c2cccc(S(=O)(=O)CCCc3ccccc3)n2)sc2ccccc12 [Example 166, 2-[6-[(3-Phenylpropyl)sulfonyl]-2-pyridyl]-4H-1,3-benzothiazine-4-one] | 149.5 to 151 °C
36 | CC(C)(C)[S+]([O-])c1cccc(-c2nc(=O)c3ccccc3s2)n1 (centres unmarked) [Example 153, 2-[6-(tert-Butylsulfinyl)-2-pyridyl]-4H-1,3-benzothiazine-4-one] | 180.5 °C (dec.)
37 | Cc1ccc2sc(-c3ccccn3)nc(=O)c2c1 [Example 13, 6-Methyl-2-(2-pyridyl)-4H-1,3-benzothiazine-4-one] | 219.8 to 220.8 °C
38 | O=C(O)CN1CCN(c2ccnc(-c3nc(=O)c4ccccc4s3)c2)C1=O [Example 324, [2-Oxo-3-[2-(4-oxo-4H-1,3-benzothiazin-2-yl)-4-pyridyl]-1-imidazolidinyl]acetic acid] | 271 to 273 °C
39 | CS(=O)(=O)NCc1cccc(-c2nc(=O)c3ccccc3s2)n1 [Example 211, N-[[6-(4-Oxo-4H-1,3-benzothiazin-2-yl)-2-pyridyl]methyl]methanesulfonamide] | 188.1 to 189.5 °C
40 | O=c1nc(-c2cccc(C[S+]([O-])Cc3ccccc3)n2)sc2ccccc12 (centres unmarked) [Example 256, 2-[6-[(Benzylsulfinyl)methyl]-2-pyridyl]-4H-1,3-benzothiazine-4-one] | 187 to 189 °C
41 | O=c1nc(-c2ccco2)sc2ccccc12 [Example 1, 2-(2-Furyl)-4H-1,3-benzothiazine-4-one] | 170 to 171.5 °C
42 | COc1ccc(-c2cccc(-c3nc(=O)c4ccccc4s3)n2)cc1 [Example 198, 2-[6-(4-Methoxyphenyl)-2-pyridyl]-4H-1,3-benzothiazine-4-one] | 200.1 to 201.1 °C
43 | CC(C)(C)S(=O)(=O)c1cccc(-c2nc(=O)c3ccccc3s2)n1 [Example 154, 2-[6-(tert-Butylsulfonyl)-2-pyridyl]-4H-1,3-benzothiazine-4-one] | 233.6 to 234.7 °C
44 | CN(C)C(=O)NCc1cccc(-c2nc(=O)c3ccccc3s2)n1 [Example 216, N,N-Dimethyl-N′-[[6-(4-oxo-4H-1,3-benzothiazin-2-yl)-2-pyridyl]methyl]urea] | 175.2 to 176.3 °C
45 | O=c1nc(-c2cccc(-c3ccccn3)n2)sc2ccccc12 [Example 199, 2-[6-(2,2′-Bipyridyl)]-4H-1,3-benzothiazine-4-one] | 222.1 to 223.9 °C
46 | O=C(O)CCc1ccnc(-c2nc(=O)c3ccc(F)cc3s2)c1 [Example 186, 3-[2-(7-Fluoro-4-oxo-4H-1,3-benzothiazin-2-yl)-4-pyridyl]propionic acid] | 240 °C (dec.)
47 | CN(Cc1ccccc1)c1cc(-c2nc(=O)c3ccccc3s2)ccn1 [Example 71, 2-[2-(N-Benzyl-N-methylamino)-4-pyridyl]-4H-1,3-benzothiazine-4-one] | 145.9 to 146.6 °C
